In patent publication US11447534B2, “Peptide complex with immunodulatory and anti-inflammatory function” (NATIONAL INSTITUTE OF IMMUNOLOGY, priority 2018, dated 2022):

What was measured:
[1] = test system: EOC20 microglial cells; experiment: F-actin confocal microscopy of unstimulated EOC20 microglia; format: cell-based; settings: serum starved, 1 hour
Procedure: To determine the morphological changes in microglia upon exposure to A-O complex, F-actin confocal microscopy was performed. For that poly-L-lysine coated coverslips were placed in the 24 well culture dishes containing 1 ml of complete media and cells were seeded over the cover slips. […] Post treatment, the cell culture media was then removed and cells were washed thrice with 1×PBS (pH 7.4). Cells were fixed in 4% PFA for 10 min at room temperature and then washed thrice with 1×PBS (pH 7.4). Cells were then exposed to Phalloidin-actin (F-actin) antibody for 20 min in the dark. Thereafter, cells were washed twice with 1×PBS (pH7.4) and mounted using DAPI Fluormount (Invitrogen, Carlsbad, Calif., USA). Cells were imaged on a Zeiss LSM510 META laser-scanning confocal microscope. A PlanApochromat 63/1.4 oil-immersion DIC M27 objective (Zeiss) was used for image acquisition. [Concentration of Phalloidin-actin antibody: 300 U of Phalloidin-actin (Invitrogen, Carlsbad, USA) was dissolved in 1.5 ml methanol to yield a concentration of 200 U/ml or 6.6 μM. 1 U of phalloidin is equal to 5 μl of methanolic stock].

[2] = test system: RAW264.7 macrophages; experiment: Lactate dehydrogenase (LDH) assay in macrophages; format: cell-based, murine
Procedure: Effect of Abeta-Glu-OC (3 ng) mixture on macrophage integrity: To determine whether the mixture produced any toxicity lactate dehydrogenase (LDH) assay was performed. Briefly, the cells were incubated with the mixture under serum starved conditions for 1 hour followed by LDH assay. LDH was assayed using In vitro toxicology assay kit from Sigma-Aldrich, St. Louis, Mo., USA (cat. no.-TOX7) as per the manufacturer's directions. LDH assay substrate solution, LDH assay dye solution and 1×LDH assay cofactor were provided with the kit. […] To this LDH assay mixture was added and incubated at room temperature in the dark for 20-30 min. The reaction was terminated by the addition of 1/10 volume of 1N HCl. Absorption was taken 490 nm with the help of in a Tecan Microplate reader, Switzerland with Magellan™ software.

[3] = test system: ConA stimulated EOC20 microglia; experiment: F-actin staining and qPCR in ConA stimulated EOC20 microglia; format: cell-based
Procedure: (§1) To determine the immunomodulatory effect of A-O complex, serum starved macrophages were exposed to the complex. Macrophages (1×10^6 cells) were serum starved for 30 min after which cells were exposed to A-O complex. After 1 hour, cells were washed with 1×PBS (pH 7.4) and harvested using cell dissociation solution. Then the cells were suspended in ice cold staining buffer (100 μl) and centrifuged at 1000 rpm for 5 min at 4° C. The cells were resuspended in 100 μl ice cold staining buffer for 10 min at 2-8° C. and pellet resuspended in 50 μl staining media. To this 2 μl of Fc block or anti-mouse CD16/CD32 was added for 10 mins and washed with staining buffer. The cells were resuspended in 50 μl of staining buffer and incubated with fluorescent-tagged CD36 antibody (e-biosciences) for 25-30 min on ice. The excess stain was removed by washing and pelleting down using staining buffer thrice by spinning and removal of staining buffer. The cell suspension was fixed 1:1 ratio (staining buffer:fixative) and analysed within 48 h in ARIA3 DIVA software version 6.1. Further, expression of MHC-II, and CD-36, was also determined in the microglial cells via qPCR. For this RNA extraction was performed using RNA extraction kit from Qiagen according to the manufacturer's instruction. cDNA synthesis was performed using cDNA synthesis kit from Qiagen. To perform qPCR, 10 ng cDNA (per well) was amplified using the Light Cycler 480 Sybergreen I Master reagent (Roche Diagnostics, Indianapolis, Ind.) and primers (commercially purchased from SABiosciences, Qiagen) in the Light Cycler 480 (Roche Diagnostics, Switzerland) under following cycling conditions: 3 min at 95° C., 15 sec at 95° C., 20 sec at 60° C., 25 sec at 72° C. for 40 cycles. Following amplification, fold changes in gene expression versus β-actin (reference) analysis was determined using the 2^ΔΔCT(Livak) method.
To determine the immunomodulatory effect of A-O complex in microglia, EOC20 microglial cells from ATCC (CRL-2469) was employed. The cells were cultured in high glucose Dulbecco's […] Essential Media (DMEM) containing 4 mM L-glutamine, 10% fetal bovine serum (FBS) and 20% LADMAC conditioned media. LADMAC media was prepared by growing 80% confluent LADMAC cell line from ATCC (CRL-2420) in alpha-minimal essential media supplemented with 10% FBS for 5 days. The spent supernatant was centrifuged at 1000 rpm for 10 min and the supernatant was filtered as used as LADMAC media. To determine the morphological changes in microglia upon exposure to A-O complex, F-actin confocal microscopy was performed. […]
Next, immunomodulatory effect of A-O complex on activated microglial cells was determined. […] The immunomodulatory effect was assessed via F-actin staining and qPCR.

[4] = test system: CD36 scavenger receptor; experiment: Flow cytometry of cell surface CD36 in macrophages; format: cell-based, murine; settings: 1 hour exposure, FACS
Procedure: as §1, with “For this RNA extraction was performed using RNA extraction kit from Qiagen according to the manufacturer's instruction. cDNA synthesis was performed using cDNA synthesis kit from Qiagen. To perform qPCR, 10 ng cDNA (per well) was amplified using the Light Cycler 480 Sybergreen I Master reagent (Roche Diagnostics, Indianapolis, Ind.) and primers (commercially purchased from SABiosciences, Qiagen) in the Light Cycler 480 (Roche Diagnostics, Switzerland) under following cycling conditions: 3 min at 95° C., 15 sec at 95° C., 20 sec at 60° C., 25 sec at 72° C. for 40 cycles.” left out

[5] = test system: RAW264.7 macrophages; experiment: qPCR of Cd74, Cd36 in serum starved macrophages; format: cell-based, murine; settings: unstimulated RAW264.7 macrophages, with respect to basal
[6] = test system: iNOS (inducible nitric oxide synthase); experiment: iNOS Western blot and Griess nitrite assay in ConA activated macrophages; format: cell-based, murine; settings: ConA induced
Procedure: To determine the anti-inflammatory potential of A-O complex, protein level of iNOS (inducible nitric oxide synthase) in cell lysates and nitrite level in cell culture supernatants were evaluated by Western blot and Griess assay respectively. iNOS antibody used was #2982 from Cell Signaling Technology. For determination of nitrite cell culture media and Griess reagent (5% phosphoric acid containing 0.1% NEDD, 1% sulfanilamide) were mixed and incubated in dark for 10 min at room temperature. The absorbance of the violet colored product and blank (cell culture media) was measured at 540 nm. The concentration of nitrite in the sample was determined from a sodium nitrite (NaNO2) standard curve.

[7] = test system: carrageenan challenged mice; experiment: Carrageenan induced nitrite production in serum (Griess reaction); format: in vivo, mouse; settings: 50 microgram of A-O complex, 3rd hour post carrageenan challenge
Procedure: Measurement of nitric oxide in serum: Nitric oxide concentration in serum of carrageenan challenged mice with or without treatment was determined by the Griess reaction as an indicator of nitric oxide production as previously reported by Prado (2002) [Prado W A, Schiavon V F, Cunha F Q. Dual effect of local application of nitric oxide donors in a model of incision pain in rats. Eur J Pharmacol. 2002; 441:57-65]. Briefly, 100 microlitre of sera and 100 microlitre of Griess reagent (mix of 2% sulphanilamide in 5% phosphoric acid and 0.2% N(1-naphthyl) ethylenediamine hydrochloride) were mixed in 96-well ELISA plate and Absorbance was read at 550 nm. The concentration of nitrite was determined using a standard curve of sodium nitrite.

[8] = ConA stimulated microglia, qPCR

In the case of “A-O complex: peptide complex of 100 μM Abeta1-42 (SEQ ID NO: 1) and 3 ng Glu-OC (SEQ ID NO: 2), incubated at 37° C. for 4 hours”, the “microglia morphology (F-actin)” value [1] is reported as “rounded morphology with projections indicative of activation”, the “intracellular LDH” value [2] is reported as “did not show any rise in intracellular LDH” and the “mRNA level of Cd11b” value [3, 8] is reported as “normalized”. For the same substance, the “mRNA level of Cd36” value [3, 8] was “induced”, the “mRNA level of Tnfa” value [3, 8] was “normalized” and the “microglia morphology (F-actin)” value ([3]; EOC20 microglia, ConA 30 mins then A-O complex 1 hour) was “presence of cells with ramified process”. For the same substance, the “cell surface protein expression of CD36 receptor” value [4] was “increased cell surface protein expression”, the “increase in mRNA level of Cd36” value [5] was 8 fold and the “increase in mRNA level of Cd74 (MHC-II)” value [5] was 3 fold. For the same substance, the iNOS protein expression ([6]; macrophage cell lysates, Western blot) was “reduces the iNOS expression”, the “nitrite level in cell culture supernatants” value ([6]; macrophage cultures, Griess assay) was “reduction in the ConA induced nitrite levels” and the serum nitrite level [7] was “maximal efficiency to reduce serum nitrite level”.
